Experimental data published in patent US20090137664A1, “SAURURUS CERNUUS COMPOUNDS THAT INHIBIT CELLULAR RESPONSES TO HYPOXIA” (priority 2003, published 2009).

How the values were obtained:
SN12C = assay: NCI in vitro cell line screen (SRB), Renal Cancer SN12C; type: cell-based
Experimental: (§1) For exemplary purposes, an embodiment of the present invention was tested for activity with respect to certain cancer cell lines. The following Tables show results from in vitro 60-cell line antitumor testing from the US National Cancer Institute Developmental Therapeutics Program (NCI-DTP) on compound 2. The testing was in connection with the NCI's In Vitro Cell Line Screening Project (IVCLSP). Detailed information regarding the experiments and their interpretation is available from the NCI.

HIF-1 = assay: pTK-HRE3-luc reporter assay, 1,10-phenanthroline-induced HIF-1 activation in T47D cells; type: cell-based; conditions: Homo sapiens, read-out: inhibition of HIF-1 activation by 1,10-phenanthroline, 100 nM
Description: Iron chelators and transition metals (such as cobalt and nickel) can activate HIF-1 and have been used as chemical hypoxia mimetics. […] The expression of the HIF-1α subunit quantitatively determines HIF-1 biological activity (activation of transcription).

MOLT-4 = assay: NCI in vitro cell line screen (SRB), Leukemia MOLT-4; type: cell-based
Experimental: as §1

MDA-MB-435 = assay: NCI in vitro cell line screen (SRB), Breast Cancer MDA-MB-435; type: cell-based
Experimental: as §1

A498 = assay: NCI in vitro cell line screen (SRB), Renal Cancer A498; type: cell-based
Experimental: as §1

MCF7 = assay: NCI in vitro cell line screen (SRB), Breast Cancer MCF7; type: cell-based
Experimental: as §1

SK-MEL-5 = assay: NCI in vitro cell line screen (SRB), Melanoma SK-MEL-5; type: cell-based
Experimental: as §1

SF-295 = assay: NCI in vitro cell line screen (SRB), CNS Cancer SF-295; type: cell-based
Experimental: as §1

HIF-1α protein = assay: Western blot, hypoxic induction of nuclear HIF-1α protein in T47D cells; type: cell-based, human; conditions: T47D nuclear extract, hypoxia 4 hr
Experimental: Due to the low abundance of HIF-1α protein in whole cell extract, nuclear extract is prepared and the level of HIF-1α protein in the nuclear extract determined by Western blot. Briefly, exponentially grown T47D cells are exposed to compound 2 for 30 minutes. […] Nuclear extracts are prepared from control and treated cells, separated on a SDS/PAGE gel, the separated proteins transferred to a nitrocellulose membrane, incubated with the primary antibodies (anti-HIF-1α, and anti-HIF-1β monoclonal antibodies, Novus Biologicals), secondary antibody biotinylated anti-mouse immunoglobulin G and Vectastain ABC reagent (Vector Laboratories), and developed using ECL reagents (Amersham Biosciences). […] No change in HIF-1β protein level is observed across the treatments. It is reasonable to conclude that the selectivity of compound 2 towards hypoxia-activated HIF-1 is caused by selective blockade of the hypoxic induction of HIF-1 protein.
To investigate the mechanism of action, the effects of these compounds on hypoxic stabilization of HIF-1α protein are examined in T47D cells using Western blot.

M14 = assay: NCI in vitro cell line screen (SRB), Melanoma M14; type: cell-based
Experimental: as §1

[1] = Homo sapiens, read-out: LC50 (the source's name)

COc1ccc([C@@H](O)[C@@H](C)Oc2ccc([C@H]3O[C@H](c4ccc(O[C@H](C)[C@H](O)c5ccc6c(c5)OCO6)c(OC)c4)[C@H](C)[C@H]3C)cc2OC)cc1OC [Compound 2, manassantin B]
TGI (SN12C): >1.00E−4 Molar | GI50 (SN12C; Homo sapiens): 35.2 µM | CC50 (SN12C; [1]): > 100 µM | Mean Optical Densities (SN12C; Log10 Concentration −4.0 Molar): 0.594 | Percent Growth (SN12C; Log10 Concentration −4.0 Molar): 42% | Mean Optical Densities (SN12C; Log10 Concentration −5.0 Molar): 0.669 | Percent Growth (SN12C; Log10 Concentration −5.0 Molar): 59% | Mean Optical Densities (SN12C; Log10 Concentration −6.0 Molar): 0.723 | Percent Growth (SN12C; Log10 Concentration −6.0 Molar): 72% | Mean Optical Densities (SN12C; Log10 Concentration −7.0 Molar): 0.775 | Percent Growth (SN12C; Log10 Concentration −7.0 Molar): 84% | Mean Optical Densities (SN12C; Log10 Concentration −8.0 Molar): 0.770 | Percent Growth (SN12C; Log10 Concentration −8.0 Molar): 82% | inhibition at 0.1 µM (HIF-1): 44% | TGI (MOLT-4): >1.00E−4 Molar | GI50 (MOLT-4; Homo sapiens): 44.7 µM | LC50 (concentration killing 50% of cells) (MOLT-4; Homo sapiens): > 100 µM | Mean Optical Densities (MOLT-4; Log10 Concentration −4.0 Molar): 0.416 | Percent Growth (MOLT-4; Log10 Concentration −4.0 Molar): 47% | Mean Optical Densities (MOLT-4; Log10 Concentration −5.0 Molar): 0.462 | Percent Growth (MOLT-4; Log10 Concentration −5.0 Molar): 55% | Mean Optical Densities (MOLT-4; Log10 Concentration −6.0 Molar): 0.685 | Percent Growth (MOLT-4; Log10 Concentration −6.0 Molar): 90% | Mean Optical Densities (MOLT-4; Log10 Concentration −7.0 Molar): 0.646 | Percent Growth (MOLT-4; Log10 Concentration −7.0 Molar): 84% | Mean Optical Densities (MOLT-4; Log10 Concentration −8.0 Molar): 0.646 | Percent Growth (MOLT-4; Log10 Concentration −8.0 Molar): 84% | TGI (MDA-MB-435): >1.00E−4 Molar | GI50 (MDA-MB-435; Homo sapiens): 1.88 µM | CC50 (MDA-MB-435; [1]): > 100 µM | Mean Optical Densities (MDA-MB-435; Log10 Concentration −4.0 Molar): 0.534 | Percent Growth (MDA-MB-435; Log10 Concentration −4.0 Molar): 1% | Mean Optical Densities (MDA-MB-435; Log10 Concentration −5.0 Molar): 0.605 | Percent Growth (MDA-MB-435; Log10 Concentration −5.0 Molar): 10% | Mean Optical Densities (MDA-MB-435; Log10 Concentration −6.0 Molar): 1.079 | Percent Growth (MDA-MB-435; Log10 Concentration −6.0 Molar): 65% | Mean Optical Densities (MDA-MB-435; Log10 Concentration −7.0 Molar): 1.179 | Percent Growth (MDA-MB-435; Log10 Concentration −7.0 Molar): 77% | Mean Optical Densities (MDA-MB-435; Log10 Concentration −8.0 Molar): 1.122 | Percent Growth (MDA-MB-435; Log10 Concentration −8.0 Molar): 70% | TGI (A498): >1.00E−4 Molar | GI50 (A498; Homo sapiens): 13.2 µM | CC50 (A498; [1]): > 100 µM | Mean Optical Densities (A498; Log10 Concentration −4.0 Molar): 1.223 | Percent Growth (A498; Log10 Concentration −4.0 Molar): 14% | Mean Optical Densities (A498; Log10 Concentration −5.0 Molar): 1.343 | Percent Growth (A498; Log10 Concentration −5.0 Molar): 55% | Mean Optical Densities (A498; Log10 Concentration −6.0 Molar): 1.419 | Percent Growth (A498; Log10 Concentration −6.0 Molar): 80% | Mean Optical Densities (A498; Log10 Concentration −7.0 Molar): 1.433 | Percent Growth (A498; Log10 Concentration −7.0 Molar): 85% | Mean Optical Densities (A498; Log10 Concentration −8.0 Molar): 1.414 | Percent Growth (A498; Log10 Concentration −8.0 Molar): 79% | TGI (MCF7): 9.51E−6 Molar | GI50 (MCF7; Homo sapiens): 0.36 µM | CC50 (MCF7; [1]): > 100 µM | Mean Optical Densities (MCF7; Log10 Concentration −4.0 Molar): 0.191 | Percent Growth (MCF7; Log10 Concentration −4.0 Molar): −40% | Mean Optical Densities (MCF7; Log10 Concentration −5.0 Molar): 0.316 | Percent Growth (MCF7; Log10 Concentration −5.0 Molar): −1% | Mean Optical Densities (MCF7; Log10 Concentration −6.0 Molar): 0.758 | Percent Growth (MCF7; Log10 Concentration −6.0 Molar): 42% | Mean Optical Densities (MCF7; Log10 Concentration −7.0 Molar): 0.937 | Percent Growth (MCF7; Log10 Concentration −7.0 Molar): 60% | Mean Optical Densities (MCF7; Log10 Concentration −8.0 Molar): 0.959 | Percent Growth (MCF7; Log10 Concentration −8.0 Molar): 62% | TGI (SK-MEL-5): 1.85E−6 Molar | GI50 (SK-MEL-5; Homo sapiens): < 0.01 µM | CC50 (SK-MEL-5; [1]): 9.04 µM | Mean Optical Densities (SK-MEL-5; Log10 Concentration −4.0 Molar): 0.097 | Percent Growth (SK-MEL-5; Log10 Concentration −4.0 Molar): −79% | Mean Optical Densities (SK-MEL-5; Log10 Concentration −5.0 Molar): 0.222 | Percent Growth (SK-MEL-5; Log10 Concentration −5.0 Molar): −53% | Mean Optical Densities (SK-MEL-5; Log10 Concentration −6.0 Molar): 0.771 | Percent Growth (SK-MEL-5; Log10 Concentration −6.0 Molar): 19% | Mean Optical Densities (SK-MEL-5; Log10 Concentration −7.0 Molar): 1.053 | Percent Growth (SK-MEL-5; Log10 Concentration −7.0 Molar): 38% | Mean Optical Densities (SK-MEL-5; Log10 Concentration −8.0 Molar): 0.980 | Percent Growth (SK-MEL-5; Log10 Concentration −8.0 Molar): 33% | TGI (SF-295): 7.46E−5 Molar | GI50 (SF-295; Homo sapiens): < 0.01 µM | CC50 (SF-295; [1]): > 100 µM | Mean Optical Densities (SF-295; Log10 Concentration −4.0 Molar): 0.523 | Percent Growth (SF-295; Log10 Concentration −4.0 Molar): −2% | Mean Optical Densities (SF-295; Log10 Concentration −5.0 Molar): 0.621 | Percent Growth (SF-295; Log10 Concentration −5.0 Molar): 11% | Mean Optical Densities (SF-295; Log10 Concentration −6.0 Molar): 0.851 | Percent Growth (SF-295; Log10 Concentration −6.0 Molar): 39% | Mean Optical Densities (SF-295; Log10 Concentration −7.0 Molar): 0.811 | Percent Growth (SF-295; Log10 Concentration −7.0 Molar): 34% | Mean Optical Densities (SF-295; Log10 Concentration −8.0 Molar): 0.751 | Percent Growth (SF-295; Log10 Concentration −8.0 Molar): 27% | hypoxic induction of HIF-1α protein (HIF-1α protein): specifically inhibits | TGI (M14): >1.00E−4 Molar | GI50 (M14; Homo sapiens): 4.19 µM | CC50 (M14; [1]): > 100 µM | Mean Optical Densities (M14; Log10 Concentration −4.0 Molar): 0.439 | Percent Growth (M14; Log10 Concentration −4.0 Molar): 12% | Mean Optical Densities (M14; Log10 Concentration −5.0 Molar): 0.521 | Percent Growth (M14; Log10 Concentration −5.0 Molar): 30% | Mean Optical Densities (M14; Log10 Concentration −6.0 Molar): 0.764 | Percent Growth (M14; Log10 Concentration −6.0 Molar): 83% | Mean Optical Densities (M14; Log10 Concentration −7.0 Molar): 0.843 | Percent Growth (M14; Log10 Concentration −7.0 Molar): 100% | Mean Optical Densities (M14; Log10 Concentration −8.0 Molar): 0.809 | Percent Growth (M14; Log10 Concentration −8.0 Molar): 93%
